Measurements from patent US11932634B2 (Gilead Sciences, Inc., priority 2021, dated 2024).

Key:
[1] = biological target: T1, human DGKα (Homo sapiens, UniProt P23743); test: DGKα Biochemical Activity Assay (ADP-Glo);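 further: recombinant enzyme converting diacylglycerol in lipid micelles with ATP, ADP formed detected by luminescence, IC50 from a four-parameter nonlinear fit, geometric mean across experiments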
T1 construct: purchased Carna Biosciences'; inferred from the same paragraph's 'obtained from Carna Biosciences')
T1 sequence (P23743 whole entry): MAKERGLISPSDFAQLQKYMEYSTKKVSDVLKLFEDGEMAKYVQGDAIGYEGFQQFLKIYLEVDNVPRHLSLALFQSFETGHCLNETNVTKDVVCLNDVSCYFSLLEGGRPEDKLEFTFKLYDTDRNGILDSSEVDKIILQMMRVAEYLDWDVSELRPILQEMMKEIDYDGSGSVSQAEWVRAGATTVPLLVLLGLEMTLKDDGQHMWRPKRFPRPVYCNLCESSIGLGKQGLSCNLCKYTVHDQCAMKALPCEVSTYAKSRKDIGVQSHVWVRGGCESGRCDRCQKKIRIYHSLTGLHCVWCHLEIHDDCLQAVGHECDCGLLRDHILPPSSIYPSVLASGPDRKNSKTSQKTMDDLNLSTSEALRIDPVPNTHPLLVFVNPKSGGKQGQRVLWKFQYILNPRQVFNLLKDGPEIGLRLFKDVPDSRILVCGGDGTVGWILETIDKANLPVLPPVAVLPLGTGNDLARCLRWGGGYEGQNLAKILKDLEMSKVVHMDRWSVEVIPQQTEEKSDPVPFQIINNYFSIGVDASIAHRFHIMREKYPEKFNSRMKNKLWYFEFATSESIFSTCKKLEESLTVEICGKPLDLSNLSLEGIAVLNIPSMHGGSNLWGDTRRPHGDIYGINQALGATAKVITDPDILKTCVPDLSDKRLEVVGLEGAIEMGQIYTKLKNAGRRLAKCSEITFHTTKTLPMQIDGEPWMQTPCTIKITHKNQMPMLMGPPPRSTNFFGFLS
Text: Alternatively, the enzymatic activity of human DGKα was monitored in a biochemical assay in the presence or absence of compounds and using micelles containing 18:1 Diacylglycerol (DAG), 16:0-18:1 PS (POPS) and Octylglucoside as substrate. DGKα activity led to conversion of DAG and ATP to Phosphatidic Acid (PA) and ADP. Levels of ADP were monitored by bioluminescence using the ADP-Glo Kinase Assay (Promega) and were indicative of DGKα activity.
Ten nanoliters of test compound dissolved in DMSO at various concentrations were dispensed into a 384-well low volume nonbinding service white plates (Corning #3824) using a Labcyte Echo instrument. Recombinant DGKα Biosciences) in assay buffer (5 μL in 50 mM MOPS [3-(N-morpholino) propanesulfonic acid], pH 7.2; 0.0025% Triton X-100; 1 mM dithiothreitol; 5 mM MgCl2, 200 μM ATP) was added to the compound-containing plate and was incubated for 15 minutes at 25° C. A substrate solution (5 μL in 1.7 mM 1,2-dioleoyl-sn-glycerol [18:1 DAG], 13.5 mM 1-palmitoyl-2-oleoyl-sn-glycero-3-phospho-L-serine [16:0-18:1 PS](POPS), 2 μM CaCl2), 100 mM Octylglucoside (OG), 1 mM DTT) (obtained from Carna Biosciences) diluted in DGK ALPHA assay buffer was then added to start the reaction. Final concentrations were 1 nM DGKα, 100 μM ATP, 1 μM calcium chloride, 0.85 mM 1,2-dioleoyl-sn-glycerol (18:1 DAG), 6.75 mM 1-palmitoyl-2-oleoyl-sn-glycero-3-phospho-L-serine (16:0-18:1 PS) (POPS), 1 μM CaCl2), 50 mM Octylglucoside (OG) and 5 mM MgCl2. The reaction mixture was incubated at 25° C. for 1 hour. ADP-Glo Reagent (10 μL, 10 mM Mg added) provided by the kit was added to each well and incubated at 25° C. for 40 minutes. Then, 20 μL of Kinase Detection Reagent was added and incubated at 25° C. for 40 minutes. Luciferase activity of each well was measured via luminescence on an Envision plate reader (PerkinElmer).
Least squares curve fittings were performed using a four-parameter variable slope nonlinear regression model. […] IC50 values from multiple experiments were averaged by geometric mean and the standard deviation was calculated.

[2] = test system: Jurkat NFκB-luciferase cells; test: Jurkat NFκB-Luciferase Assay; assay type: cell-based; details: Homo sapiens; Jurkat NFκB-luciferase cells activated with anti-CD3 antibody (OKT3), 2.5 hrs at 37° C., One-Glo Ex; geometric mean; read-out: DGK NFKb Luciferase EC50;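 further: bioluminescence read-out normalized to DMSO basal activation and to maximum enhancement at 1 µM compound, rising signal indicating stronger T-cell activation through DGKα inhibition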

Compound	IC50 [1]	EC50 [2]
[2H]C([2H])([2H])n1c(=O)nc(N(CC(F)F)c2cc(F)cc(C#CC3(C(F)(F)F)CC3)c2)c2cc(F)ccc21 [Example 51, 4-[N-(2,2-difluoroethyl)-3-fluoro-5-[2-[1-(trifluoromethyl)cyclopropyl]ethynyl]anilino]-6-fluoro-1-(trideuteriomethyl)quinazolin-2-one]	35.3 nM	0.75 nM
COC(C)(C)C#Cc1cccc2c1CCCN2c1nc(=O)[nH]c2cccc(F)c12 [Example 52, 5-fluoro-4-[5-(3-methoxy-3-methyl-but-1-ynyl)-3,4-dihydro-2H-quinolin-1-yl]-1H-quinazolin-2-one]	12.9 nM	0.197 nM
CC(C)(C)C(O)C#Cc1cccc2c1CCCN2c1nc(=O)[nH]c2cccc(F)c12 (centres unmarked) [Example 53, 5-fluoro-4-[5-(3-hydroxy-4,4-dimethyl-pent-1-ynyl)-3,4-dihydro-2H-quinolin-1-yl]-1H-quinazolin-2-one]	47.8 nM	2.74 nM
CC(C)(O)CC#Cc1cccc2c1CCCN2c1nc(=O)[nH]c2cccc(F)c12 [Example 54, 5-fluoro-4-[5-(4-hydroxy-4-methyl-pent-1-ynyl)-3,4-dihydro-2H-quinolin-1-yl]-M-quinazolin-2-one]	23.6 nM	8.22 nM
[2H]C([2H])([2H])n1c(=O)nc(N2CCCc3c(C#CC(C)(C)O)cccc32)c2c(F)cccc21 [Example 55, 5-fluoro-4-[5-(3-hydroxy-3-methyl-but-1-ynyl)-3,4-dihydro-2H-quinolin-1-yl]-1-(trideuteriomethyl)quinazolin-2-one]	5.82 nM	4.68 nM
CCC(C)(O)C#Cc1cccc2c1CCCN2c1nc(=O)[nH]c2cccc(F)c12 (centres unmarked) [Example 56, 5-fluoro-4-[5-(3-hydroxy-3-methyl-pent-1-ynyl)-3,4-dihydro-2H-quinolin-1-yl]-1H-quinazolin-2-one]	31.9 nM	5.16 nM
CCC(O)(C#Cc1cccc2c1CCCN2c1nc(=O)[nH]c2cccc(F)c12)CC [Example 57, 4-[5-(3-ethyl-3-hydroxy-pent-1-ynyl)-3,4-dihydro-2H-quinolin-1-yl]-5-fluoro-1H-quinazolin-2-one]	150 nM	9.99 nM
O=c1nc(N(CC(F)F)c2cccc(C#CC3(C(F)(F)F)CC3)c2F)c2c(F)cccc2[nH]1 [Example 58, 4-[N-(2,2-difluoroethyl)-2-fluoro-3-[2-[1-(trifluoromethyl)cyclopropyl]ethynyl]anilino]-5-fluoro-1H-quinazolin-2-one]	72.2 nM	0.285 nM
CC(C)(O)C#Cc1cccc(N(CC(F)F)c2nc(=O)[nH]c3cccc(F)c23)c1F [Example 59, 4-[N-(2,2-difluoroethyl)-2-fluoro-3-(3-hydroxy-3-methyl-but-1-ynyl)anilino]-5-fluoro-M-quinazolin-2-one]	7.63 nM	14.5 nM
CC(C)(C#Cc1cccc(N(CC(F)F)c2nc(=O)[nH]c3cccc(F)c23)c1F)C(F)(F)F [Example 60, 4-[N-(2,2-difluoroethyl)-2-fluoro-3-(4,4,4-trifluoro-3,3-dimethyl-but-1-ynyl)anilino]-5-fluoro-1H-quinazolin-2-one]	122 nM	2.53 nM
CC1(C#Cc2cccc(N(CC(F)F)c3nc(=O)[nH]c4cccc(F)c34)c2F)CC1 [Example 61, 4-[N-(2,2-difluoroethyl)-2-fluoro-3-[2-(1-methylcyclopropyl)ethynyl]anilino]-5-fluoro-1H-quinazolin-2-one]	48.2 nM	1.7 nM
O=c1nc(N(CC(F)F)c2cccc(C#CC3(C(F)F)CC3)c2F)c2c(F)cccc2[nH]1 [Example 62, 4-[N-(2,2-difluoroethyl)-3-[2-[1-(difluoromethyl)cyclopropyl]ethynyl]-2-fluoro-anilino]-5-fluoro-1H-quinazolin-2-one]	28.2 nM	1.13 nM
CC(C)(C#Cc1cccc(N(CC(F)F)c2nc(=O)[nH]c3cccc(F)c23)c1F)C(F)F [Example 63, 4-[3-(4,4-difluoro-3,3-dimethyl-but-1-ynyl)-N-(2,2-difluoroethyl)-2-fluoro-anilino]-5-fluoro-1H-quinazolin-2-one]	282 nM	1.51 nM
[2H]C([2H])([2H])n1c(=O)nc(N(CC(F)F)c2cc(F)cc(C#CC(C)(C)O)c2)c2c(F)c(F)ccc21 [Example 64, 4-[N-(2,2-difluoroethyl)-3-fluoro-5-(3-hydroxy-3-methyl-but-1-ynyl)anilino]-5,6-difluoro-1-(trideuteriomethyl)quinazolin-2-one]	10.7 nM	8.99 nM
CC(C)(O)C#Cc1cc(F)cc(N(CC(F)F)c2nc(=O)[nH]c3ccc(F)c(F)c23)c1 [Example 65, 4-[N-(2,2-difluoroethyl)-3-fluoro-5-(3-hydroxy-3-methyl-but-1-ynyl)anilino]-5,6-difluoro-1H-quinazolin-2-one]	13.4 nM	9.92 nM
[2H]C([2H])([2H])n1c(=O)nc(N(CC(F)F)c2cc(F)cc(C#CC3(C)CCCO3)c2)c2c(F)c(F)ccc21 (centres unmarked) [Example 66, 4-[N-(2,2-difluoroethyl)-3-fluoro-5-[2-(2-methyltetrahydrofuran-2-yl)ethynyl]anilino]-5,6-difluoro-1-(trideuteriomethyl)quinazolin-2-one]	3.27 nM	2.85 nM
[2H]C([2H])([2H])n1c(=O)nc(N(CC(F)F)c2cc(F)cc(-c3cnc(C4CC4)cn3)c2)c2c(F)c(F)ccc21 [Example 67, 4-[3-(5-cyclopropylpyrazin-2-yl)-N-(2,2-difluoroethyl)-5-fluoro-anilino]-5,6-difluoro-1-(trideuteriomethyl)quinazolin-2-one]	7.57 nM	0.527 nM
[2H]C([2H])([2H])n1c(=O)nc(N(CC(F)F)c2cc(F)cc(C#CC(C)(C)C#N)c2)c2c(F)c(F)ccc21 [Example 68, 4-[3-[2,2-difluoroethyl-[5,6-difluoro-2-oxo-1-(trideuteriomethyl)quinazolin-4-yl]amino]-5-fluoro-phenyl]-2,2-dimethyl-but-3-ynenitrile]	3.29 nM	2.53 nM
CC(C)(C#N)C#Cc1cc(F)cc(N(CC(F)F)c2nc(=O)[nH]c3ccc(F)c(F)c23)c1 [Example 69, 4-[3-[2,2-difluoroethyl-(5,6-difluoro-2-oxo-1H-quinazolin-4-yl)amino]-5-fluoro-phenyl]-2,2-dimethyl-but-3-ynenitrile]	26.7 nM	1.8 nM
O=c1nc(N2CCCc3c(Br)cncc32)c2c(F)cccc2[nH]1 [Example 70, 4-(5-bromo-3,4-dihydro-1,7-naphthyridin-1(2H)-yl)-5-fluoroquinazolin-2(1H)-one]	170 nM	40.9 nM
O=c1nc(N2CCCc3c(C#CC4(C(F)(F)F)CC4)cncc32)c2c(F)cccc2[nH]1 [Example 71, 5-fluoro-4-(5-((1-(trifluoromethyl)cyclopropyl)ethynyl)-3,4-dihydro-1,7-naphthyridin-1(2H)-yl)quinazolin-2(1H)-one]	18.4 nM	1.43 nM
CC(C)(C#Cc1cncc2c1CCCN2c1nc(=O)[nH]c2cccc(F)c12)C(F)(F)F [Example 72, 5-fluoro-4-(5-(4,4,4-trifluoro-3,3-dimethylbut-1-yn-1-yl)-3,4-dihydro-1,7-naphthyridin-1(2H)-yl)quinazolin-2(1H)-one]	126 nM	5.71 nM
